“And” between values parts separate entries of the source, which are not always exact repeats. Equal values may be shown once. Read-outs that look alike come from different tables or passages of the source.
Experiments:
[1] = system: NCI60 human tumor cell lines; assay: NCI60 5-dose (dose-response) assay; format: cell-based; details: for MGLI50 = Mean Growth Log I50: 5-dose, mean over NCI60 panel
Text: Columns IE-KK. NCI: Misra group (data presented first in this paper). NCI60 anti-tumor cell activity. Methods: […] These 60 cell lines, along with others, have been developed at NCI and have been maintained and distributed for research purposes by NCI for over 25 years. The experimental readout provides both inhibition of cell growth and cell kill. The screen was originally designed to prioritize agents for further evaluation. […] This is the same as for the 5-dose assay, described on http://dtp.cancer.gov/branches/btb/ivclsp.html. […] Testing beyond the initial screen: There were 133 compounds that passed threshold to proceed to 5-dose (dose-response) (data are available for the 133 compounds at the DTP public website (dtp.cancer.gov) by searching either the MMV number or NSC number). After examination of the 5-dose data, 10 compounds were selected for repeat testing based generally on potency, differential cell activity or activity on an individual cell lines or cell line panel. A summary of the data for the 10 compounds of interest is in the table below.

P. falciparum = assay: EC50 listed in S2 Table Metabolomics (used to set the concentration tested); format: cell-based; details: Plasmodium falciparum; EC50 used for Factor_XEC50 in metabolomics; read-out: EC50_nM
[2] = system: P. falciparum 3D7 trophozoites; assay: Metabolomic fingerprint profiling LC-MS; format: cell-based, Plasmodium falciparum; set-up: UDP-D-glucose / ADP-D-glucose: unit not given here; details: for Acetyllysine / N-acetyl-L-ornithine / N-carbamoyl-L-aspartate / NADPH / dAMP / dCMP / dTDP / dTMP / dTTP / dihydroorotate / orotate / DLH / DLS/SDL/SID / PD / PEE / PVNF / 3-phosphoglycerate / ADP-D-glucose / ATP / CDP / D-sedoheptulose-1/7-phosphate / FAD / GMP / NAD+ / NADP+ / Octoluse Bisphosphate / Pyroglutamic acid / UDP-D-glucose / UDP-D-glucuronate / UDP-N-acetyl-glucosamine / UDP / UMP / UTP / a-ketoglutarate / citrate/isocitrate / cytidine / dATP / dGMP/AMP / fumarate / glucose-1/6-phosphate / glycerate / guanine / guanosine / hypoxanthine / indole / inosine / nicotinate / ornithine / phosphoenolpyruvate / pyruvate / ribose-phosphate / sarcosine/alanine / sn-glycerol-3-phosphate / succinate/methylmalonic acid / uridine / xanthosine: S2 Table Metabolomics; for Acetyllysine: metabolite Acetyllysine; for N-acetyl-L-ornithine: metabolite N-acetyl-L-ornithine; for N-carbamoyl-L-aspartate: metabolite N-carbamoyl-L-aspartate; for NADPH: metabolite NADPH; for dAMP: metabolite dAMP; for dCMP: metabolite dCMP; for dTDP: metabolite dTDP; for dTMP: metabolite dTMP; for dTTP: metabolite dTTP; for dihydroorotate: metabolite dihydroorotate; for orotate: metabolite orotate; for DLH: peptide DLH; for DLS/SDL/SID: peptide DLS/SDL/SID; for PD: peptide PD; for PEE: peptide PEE; for PVNF: peptide PVNF; for 3-phosphoglycerate: metabolite 3-phosphoglycerate; for ADP-D-glucose: metabolite ADP-D-glucose; for ATP: metabolite ATP; for CDP: metabolite CDP; for CDP / D-sedoheptulose-1/7-phosphate / GMP / Octoluse Bisphosphate / UDP / UMP / UTP / citrate/isocitrate / dGMP/AMP / fumarate / glucose-1/6-phosphate / glycerate / guanine / guanosine / inosine / pyruvate / sarcosine/alanine / succinate/methylmalonic acid / uridine / xanthosine: change in metabolite level after compound treatment; for D-sedoheptulose-1/7-phosphate: metabolite D-sedoheptulose-1/7-phosphate; for FAD: metabolite FAD; for GMP: metabolite GMP; for NAD+: metabolite NAD+; for NADP+: metabolite NADP+; for Octoluse Bisphosphate: metabolite Octoluse Bisphosphate; for Pyroglutamic acid: metabolite Pyroglutamic acid; for UDP-D-glucose: metabolite UDP-D-glucose; for UDP-D-glucuronate: metabolite UDP-D-glucuronate; for UDP-N-acetyl-glucosamine: metabolite UDP-N-acetyl-glucosamine; for UDP: metabolite UDP; for UMP: metabolite UMP; for UTP: metabolite UTP; for a-ketoglutarate: metabolite a-ketoglutarate; for citrate/isocitrate: metabolite citrate/isocitrate; for cytidine: metabolite cytidine; for dATP: metabolite dATP; for dGMP/AMP: metabolite dGMP/AMP; for fumarate: metabolite fumarate; for glucose-1/6-phosphate: metabolite glucose-1/6-phosphate; for glycerate: metabolite glycerate; for guanine: metabolite guanine; for guanosine: metabolite guanosine; for hypoxanthine: metabolite hypoxanthine; for indole: metabolite indole; for inosine: metabolite inosine; for 2_3-Diphosphoglyceric acid / 4-phosphopantothenate / 6-phospho-D-gluconate / FMN / IMP / Pyrophosphate / Sedoheptoluse bisphosphate / cyclic-AMP / glutathione disulfide / lactate / myo-inositol: metabolite level change after treatment; for nicotinate: metabolite nicotinate; for ornithine: metabolite ornithine; for phosphoenolpyruvate: metabolite phosphoenolpyruvate; for pyruvate: metabolite pyruvate; for ribose-phosphate: metabolite ribose-phosphate; for sarcosine/alanine: metabolite sarcosine/alanine; for sn-glycerol-3-phosphate: metabolite sn-glycerol-3-phosphate; for succinate/methylmalonic acid: metabolite succinate/methylmalonic acid; for uridine: metabolite uridine; for xanthosine: metabolite xanthosine
P. falciparum 3D7 = assay: [3H]-hypoxanthine growth inhibition, modified HCO3- or O2; format: cell-based; details: for IC50: Plasmodium falciparum
[3] = mean over cell lines of one experiment, listed as 766546/2
[4] = 3D7, read-out: P. falciparum 3D7 IC50 1% O2, 1% O2 hypoxia
[5] = 3D7, read-out: P. falciparum 3D7 IC50 5% O2

With `CCOc1cc(Cl)c(C(C)NC(=O)c2cccc(OC)c2)cc1OCC` (stereo not shown) [MMV665803] the “MGLI50 = Mean Growth Log I50” value [1] was -5.01, the “_MID Log10LC50” value ([1]; mean over cell lines of one experiment) was -4.0 Molar and the “_MID Log10GI50” value [1, 3] was -5.1 Molar and -4.93 Molar. For the same molecule, the “_MID Log10TGI” value [1, 3] was -4.1 Molar and -4.05 Molar.

In the case of `CCCCCCc1cc2cc(-c3nc4ccccc4[nH]3)c(=Nc3ccccc3C)oc2cc1O` [MMV666597], the “Notes (NCI60 5-dose activity pattern)” value [1] is reported as “Differential” and the “MGLI50 = Mean Growth Log I50” value [1] is reported as -5.57.

`CCC(c1ccccc1)c1nn2c(-c3cccs3)nnc2s1` (stereo not shown) [MMV665876] showed an EC50 (P. falciparum) of 0.259 µM, an Acetyllysine [2] of 0.283 and a N-acetyl-L-ornithine [2] of 0.02574. The N-carbamoyl-L-aspartate [2] was 2.073, the NADPH [2] was -0.7617 and the dAMP [2] was 0.5954. It also gave a dCMP [2] of -0.9145, a dTDP [2] of -1.527 and a dTMP [2] of -1.62. The dTTP [2] was -1.561, the dihydroorotate [2] was 2.966 and the orotate [2] was -1.924. It also gave a DLH [2] of -0.4979, a DLS/SDL/SID [2] of -0.4746 and a PD [2] of 0.3937. The PEE [2] was -0.2764, the PVNF [2] was -2.041 and the 3-phosphoglycerate [2] was -0.3031. The ADP-D-glucose [2] was -0.09411, the ATP [2] was -0.3796 and the CDP [2] was -0.8385. It also gave a D-sedoheptulose-1/7-phosphate [2] of 0.09562, an FAD [2] of 0.1414 and a GMP [2] of -0.3833. For the same molecule, the “NAD+” value [2] was -0.3556, the “NADP+” value [2] was -0.2262 and the “Octoluse Bisphosphate” value [2] was -0.1952. It also gave a Pyroglutamic acid [2] of -0.02059, a UDP-D-glucose [2] of -0.01878 and a UDP-D-glucuronate [2] of -0.4807. The UDP-N-acetyl-glucosamine [2] was -0.2752, the UDP [2] was -1.799 and the UMP [2] was -3.164. For the same molecule, the UTP [2] was -2.138, the a-ketoglutarate [2] was -0.08894 and the citrate/isocitrate [2] was -0.02094. It also gave a cytidine [2] of 0.3021, a dATP [2] of 0.315 and a dGMP/AMP [2] of 0.04047. For the same molecule, the fumarate [2] was 0.2534, the glucose-1/6-phosphate [2] was -0.2061 and the glycerate [2] was 0.1397. The guanine [2] was 0.4421, the guanosine [2] was 0.6466 and the hypoxanthine [2] was -0.006623. For the same molecule, the indole [2] was 0.04311, the inosine [2] was 0.2618 and the 2_3-Diphosphoglyceric acid [2] was -0.3467. The 4-phosphopantothenate [2] was -0.1285, the 6-phospho-D-gluconate [2] was 0.112 and the FMN [2] was -0.3509. It also gave an IMP [2] of 0.3458, a Pyrophosphate [2] of -0.3973 and a Sedoheptoluse bisphosphate [2] of 0.1676. It also gave a cyclic-AMP [2] of -0.04329, a glutathione disulfide [2] of 0.137 and a lactate [2] of -0.1203. For the same molecule, the myo-inositol [2] was 0.267, the nicotinate [2] was 0.1101 and the ornithine [2] was 0.02403. For the same molecule, the phosphoenolpyruvate [2] was -0.2926, the pyruvate [2] was 0.1322 and the ribose-phosphate [2] was -0.01159. It also gave a sarcosine/alanine [2] of 0.3044, a sn-glycerol-3-phosphate [2] of -0.401 and a succinate/methylmalonic acid [2] of 0.1519. For the same molecule, the uridine [2] was -0.6108, the xanthosine [2] was 0.3254 and the “fold change (IC50normal/ IC50hypoxia)” value (P. falciparum 3D7) was 6.3. It also gave an IC50 (P. falciparum 3D7; [4]) of 0.066 µM and an IC50 (P. falciparum 3D7; [5]) of 0.415 µM.

For `CCCc1c(CC)c(=N)c2ccccc2n1C` [MMV008416], the EC50 (P. falciparum) was 0.242 µM, the Acetyllysine [2] was 0.2915 and the N-acetyl-L-ornithine [2] was 0.3364. The N-carbamoyl-L-aspartate [2] was 0.3652, the NADPH [2] was 0.8856 and the dAMP [2] was 0.5762. For the same molecule, the dCMP [2] was 3.613, the dTDP [2] was 0.4591 and the dTMP [2] was 0.9083. For the same molecule, the dTTP [2] was 0.4804, the dihydroorotate [2] was 0.2294 and the orotate [2] was -0.1417. It also gave a DLH [2] of -1.006, a DLS/SDL/SID [2] of 0.3509 and a PD [2] of 0.4359. It also gave a PEE [2] of -0.9814, a PVNF [2] of 0.2215 and a 3-phosphoglycerate [2] of -0.02776. The ADP-D-glucose [2] was 0.4196, the ATP [2] was 0.6896 and the CDP [2] was 0.2951. For the same molecule, the D-sedoheptulose-1/7-phosphate [2] was -0.3684, the FAD [2] was 0.5238 and the GMP [2] was 0.02334. The “NAD+” value [2] was 0.4432, the “NADP+” value [2] was 0.7628 and the “Octoluse Bisphosphate” value [2] was 0.3902. The Pyroglutamic acid [2] was -0.3783, the UDP-D-glucose [2] was 0.135 and the UDP-D-glucuronate [2] was -0.2053. For the same molecule, the UDP-N-acetyl-glucosamine [2] was 0.4341, the UDP [2] was 0.7261 and the UMP [2] was -0.1733. The UTP [2] was 0.4819, the a-ketoglutarate [2] was 0.04368 and the citrate/isocitrate [2] was -1.579. For the same molecule, the cytidine [2] was 0.4905, the dATP [2] was 0.253 and the dGMP/AMP [2] was 0.3177. It also gave a fumarate [2] of -0.39, a glucose-1/6-phosphate [2] of 2.308 and a glycerate [2] of 0.1238. The guanine [2] was 0.3854, the guanosine [2] was -0.8003 and the hypoxanthine [2] was 0.09764. For the same molecule, the indole [2] was 0.1467, the inosine [2] was -0.1012 and the 2_3-Diphosphoglyceric acid [2] was 0.2083. It also gave a 4-phosphopantothenate [2] of 0.7504, a 6-phospho-D-gluconate [2] of 0.5606 and an FMN [2] of 0.7862. The IMP [2] was 0.4308, the Pyrophosphate [2] was -0.6119 and the Sedoheptoluse bisphosphate [2] was 0.3141. The cyclic-AMP [2] was 0.6453, the glutathione disulfide [2] was 0.5116 and the lactate [2] was 1.188. It also gave a myo-inositol [2] of 2.818, a nicotinate [2] of -0.5574 and an ornithine [2] of -0.1174. For the same molecule, the phosphoenolpyruvate [2] was -0.4016, the pyruvate [2] was 0.4708 and the ribose-phosphate [2] was 0.2759. It also gave a sarcosine/alanine [2] of 0.4883, a sn-glycerol-3-phosphate [2] of 0.06223 and a succinate/methylmalonic acid [2] of -0.5916. For the same molecule, the uridine [2] was 0.398, the xanthosine [2] was -0.8913 and the “fold change (IC50normal/ IC50hypoxia)” value (P. falciparum 3D7) was 6.1. For the same molecule, the IC50 (P. falciparum 3D7; [4]) was 0.065 µM and the IC50 (P. falciparum 3D7; [5]) was 0.397 µM.

— article PMC4965013, “Open Source Drug Discovery with the Malaria Box Compound Collection for Neglected Diseases and Beyond” (PLoS Pathogens, 2016)
